Measurements as given in patent US20020052317A1, “Anti-viral and anti-tumor chemotherapy by administration of erythropoeitin” (priority 2000, published 2002).

Tests used:
[1] = tested on: subjects treated with REBETRON for chronic hepatitis C; details: either ribavirin, interferon, or both agents; cited from earlier work
TNFβ (lymphotoxin α) = target: T1, TNFβ (lymphotoxin α) (Homo sapiens, UniProt P01374); details: cited from earlier work
T1 sequence (P01374 35-205): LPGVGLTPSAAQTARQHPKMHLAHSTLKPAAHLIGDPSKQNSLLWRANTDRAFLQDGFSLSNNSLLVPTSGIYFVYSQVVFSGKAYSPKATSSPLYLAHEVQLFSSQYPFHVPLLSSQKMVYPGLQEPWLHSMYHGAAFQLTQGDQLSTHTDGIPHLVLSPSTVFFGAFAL

[2] = in vivo, 5 mg/kg; cited from earlier work
[3] = tested on: anemic HCV infected patients receiving combination RBV/IFN alfa-2b; test: Open-label, randomized, parallel-group study of PROCRIT once weekly versus standard of care in hepatitis C patients on ribavirin/interferon alfa-2b; type: in vivo, human
[4] = tested on: patients co-infected with HIV and HCV; details: cited from earlier work
[5] = last available time point vs baseline, PROCRIT 40,000 Units qw s.c., N=22

In the case of `NC(=O)c1ncn([C@@H]2O[C@H](CO)[C@@H](O)[C@H]2O)n1` [REBETOL, 1β-D-ribofuranosyl 1H-1,2,4-Triazole-3-carboxamide], the “patients requiring a dose modification” value [1] is given as “about 26%”.

In the case of “Infliximab: monoclonal antibody that blocks the biological activity of circulating TNFα”, the “neutralization of TNFβ (lymphotoxin α)” value (TNFβ (lymphotoxin α)) is given as “does not neutralize”, the “median Cmax” value [2] is given as 118 µg/mL and the “median Vd (volume of distribution at steady state)” value [2] is given as 3.0 L. The terminal half-life [2] was 228 h.

For Epoetin alfa [PROCRIT], the “hemoglobin levels (in words)” value ([3]; anemic patients on Ribavirin/INF-alpha, FIG. 1) was “increase their hemoglobin levels to near normal levels”, the “Hb Range” value ([3]; baseline, before PROCRIT, N=25) was 9.1 to 12.0 g/dL and the “Mean Hb” value ([3]; baseline, before PROCRIT, N=25) was 11 g/dL. For the same compound, the “Change Hb Range” value [3, 5] was -1.4 to 6.2 g/dL, the “Mean change Hb” value [3, 5] was 2.4 g/dL and the “Hb Range” value ([3]; last available time point, PROCRIT 40,000 Units qw s.c., N=22) was 7.7 to 16.8 g/dL. The “Mean Hb” value ([3]; last available time point, analysis after 16 weeks, PROCRIT 40,000 Units qw s.c., N=22) was 13.5 g/dL, the patient well being ([3]; reported even before hemoglobin levels improved) was “demonstrated better well being” and the “ability to maintain Ribavirin dosing” value ([3]; throughout the study period, FIG. 2) was “increased ability to maintain Ribavirin dosing”. The “hemoglobin (Hb) value at initiation of r-HuEPO” value ([4]; before r-HuEPO 40,000 U once weekly) was 10 g/dL and the “hemoglobin (Hb) value after r-HuEPO treatment” value ([4]; r-HuEPO 40,000 U once weekly, after a median of four weeks) was 12.7 g/dL.
